Experimental data published in patent US9844535B2, “SHP2 inhibitors and methods of treating autoimmune and/or glomerulonephritis-associated diseases using SHP2 inhibitors” (Indiana University Research and Technology Corporation, priority 2013, dated 2017).
“Also recorded” adds a separate entry of the source.

Key:
[1] = test system: MRL/lpr mouse spleen immune cells; assay: Cellular immune response in spleen (histology, flow cytometry); format: in vivo
From the text: Harvested organs (kidney, spleen, and heart) to be used to assess morphometry and histochemistry were flushed with PBS, perfusion fixed in Bouin's reagent, and paraffin embedded. Sections (5 μm) were stained with Hematoxylin and Eosin (H&E), Periodic acid—Schiff stain (PAS), Masson-Trichrome, or reticulin staining at the Harvard Medical School Rodent Histopathology Core and scored using an unbiased approach, in which histology scores of 1 (normal) to 5 (most severe pathology) were designated to tissue sections which were only numerically labeled and in no particular order (by Dr. Roderick Bronson, director of the Rodent Histopathology Core, Harvard Medical School). Numerical sections were later decoded, marked for their designated score, and statistically analyzed. Images of the tissue sections were obtained and quantified on a Keyence BZ-9000 Microscope (Keyence Corporation, Itasca, Ill.).
Spleens were cut into 2 to 3 pieces each and homogenized on a 70 μm nylon mesh in 5 ml of HBSS buffer. The cells were filtered through a 70 μm nylon mesh to a new 50 ml tube and centrifuged at 2000 rpm for 5 minutes at room temperature. […]
To identify immune cell subsets, isolated cells from tissues were immunostained with mouse antibodies targeted against CD3E (145-2C11, BioLegend, San Diego, Calif.), CD4 (GK1.5, BioLegend), CD8 (53-6.7, eBioscience, San Diego, Calif.), CD45 (30-F11, eBioscience), CD 19 (6125, BioLegend), CD11b (M1170, BioLegend), TCRαβ (H57-597, BioLegend), CD44 (IM7, BioLegend), B220 (RA3-6B2, B.D. […], BD Biosciences, San Jose Calif.), CD138 (281-2, BioLegend), CD38 (CD28.2, BioLegend), Gr-1 (RB6.805, eBioscience), CD62L (DREG-56, BioLegend), and CD25 (PC61, BioLegend) for 30 minutes at 4° C. Samples were acquired on a LSR II flow cytometer (BD Biosciences) and the percentage of each sub-population of cells (B, T, monocytes, macrophage and neutrophils) was assessed by FlowJo [version 7.2.2 (Tree Star)]. Total cell numbers were counted using a hemocytometer. Absolute cell numbers for each sub-population were calculated based on the percentage of each population. […]

[2] = test system: T cells isolated from the spleen of SLE-prone mice; assay: Proliferation and viability of cultured mouse T cells; format: cell-based
Procedure: Whole tissue cell cultures prepared from mouse spleen and axillary lymph nodes were generated as described above. From within this total cell preparation, total T cells from spleen and the double negative T cells from axillary lymph nodes were further purified through negative selection using a pan T cell isolation kit from Milenyi Biotec (San Diego, Calif.). […] Next, 20 μl of anti-biotin beads were added per 1×10^7 cells and the reaction was kept on ice for another 30 minutes. After centrifuging at 2000 rpm for 5 minutes at 4° C., the pellet was resuspended in 2 ml of T cell isolation buffer (D-PBS, pH7.2, 0.5% FBS and 2 mM EDTA) and the T cells were purified through a magnetic sorting column (MACS).
The purity of isolated T cells routinely exceeded 94%. After purification, T cells were resuspended in RPMI1640 medium with 10% FBS and 1×10^5 cells/well in 100 ul total volume was loaded onto a 96-well plate, either left uncoated or precoated with anti-CD3 antibody (1 ug/ml) (OKT3; Biolegend). All cells loaded onto wells precoated with anti-CD3 antibody were also mixed with anti-CD28 antibody (0.5 μg/ml) (CD28.2; BioLegend) to help potentiate the T cell signaling response. Plated cells were cultured for 48 hours in either the presence of vehicle (DMSO) or Shp2 inhibitor (10 μg/ml). Following the incubation, 15 μl of medium was collected for various cytokine activity analyses.
For cell viability, an MTT (thiazolyl Blue tetrazolium Bromide, M2128, Sigma, St. Louis, Mo.) assay was employed. Briefly, 10 μl of the MTT labeling reagent (final concentration 0.5 mg/ml) was loaded into each cell culture well (96-well plate) and then incubated for 4 hours in a humidified chamber. Following incubation, 100 μl of solubilization solution (0.04N in absolute isopropanol) was added to each well, resuspended, and then incubated at 37° C. for an additional hour. Spectrophotometric absorbance of the samples was assessed using a microplate reader at a wavelength of 595 nm. T cell numbers/proliferation was assessed by cell count using a hemocytometer. In brief, 1×10^5 cells were plated in wells and cultured for 48 hours. 10 μl of cell suspension was then removed and mixed together with 10 μl of trypan blue solution (0.4%, T8154, Sigma). After mixing, 10 μl of the mixture was loaded onto the hemocytometer and the total average number of cells/well was calculated.
Moreover, the proliferative effects observed were specific to the double-negative T cell population (FIG. 20A).

Cn1c(-c2cccc(NC(=O)C(=O)Nc3ccc(-c4ccsc4)cc3)c2)c(I)c2cc(C(=O)O)c(O)cc21 [11a-1]
overall splenic T cell counts ([1]; MRL/lpr mice): overall splenic T cell counts were reduced | splenic CD4, CD8 and double-negative T cells ([1]; MRL/lpr mice): significant reduction in CD4, CD8, and double-negative T cells | germinal center formation in the spleen ([1]; MRL/lpr mice vs vehicle): greatly reduced | total number / proliferation of double-negative T cells ([2]; MRL/lpr, CD3 activation, 48 hours culture, listed as SHP2 inhibitor): decreased the total number of double-negative T cells; also recorded: decreases proliferation | viability of tissue-cultured double-negative T cells ([2]; MTT, absence or presence of CD3 ab, listed as SHP2 inhibitor): did not affect viability; also recorded: does not affect viability | total T cell viability ([2]; MTT, absence or presence of CD3 antibody): no effect on total T cell viability | inactive and CD3 activated T cell proliferation ([2]; SLE mouse splenic T cells, 48 hours culture): significantly inhibited | effects in WT or MRL/MpJ control cells ([2]; presence or absence of stimulation): No effects were observed
